This passage reports EC50 results from patent publication US12037333B2, “Pyridopyrazine and pyridotriazine inhibitors of influenza virus replication” (priority 2018, dated 2024).

Structures are written as SMILES.

The test system of the test is Influenza type A (strain A/PR/8/34, ATCC VR-95). Briefly: Influenza antiviral assay: inhibition of virus-induced cytopathic effects (CPE) in MDCK cells, XTT dye reduction. The test is classed as cell-based. Particulars: Influenza A virus, H1N1 / PR/8, MDCK, 96 h, strain A/PR/8/34, MDCK cells, CPE inhibition at 4 days. (Damage to the host cells serves as the signal in cytopathic effect assays.)
A word on the EC50: it is the midpoint of the concentration-response curve. Low values mean greater potency, high ones weaker potency. Molecule `CN1CN(C23c4ccccc4CC2Cc2ccccc23)n2ccc(=O)c(O)c2C1=O` (stereo not shown) [Compound A1, 1-(9a, 10-dihydroindeno[1,2-a]inden-4b(9H)-yl)-5-hydroxy-3-methyl-2,3-dihydro-1H-pyrido[2,1-f][1,2,4]triazine-4,6-dione] yielded an EC50 below 125 nM.

Regarding `O=C1c2c(O)c(=O)ccn2N(C23c4ccccc4CC2Cc2ccccc23)CN1CC1CC1` (stereo not shown) [Compound A2, 3-Cyclopropylmethyl-1-(9a,10-dihydro-9H-indeno[1,2-a]inden-4b-yl)-5-hydroxy-2,3-dihydro-1H-pyrido[2,1-f][1,2,4]triazine-4,6-dione], the EC50 lay within 125 to 250 nM.

With `CN1CN(C23c4ccc(F)cc4CC2Cc2cc(F)ccc23)n2ccc(=O)c(O)c2C1=O` (stereo not shown) [Compound A3, 1-(2,7-Difluoro-9a,10-dihydro-9H-indeno[1,2-a]inden-4b-yl)-5-hydroxy-3-methyl-2,3-dihydro-1H-pyrido[2,1-f][1,2,4]triazine-4,6-dione], the 50% effective concentration (EC50) was 125 to 250 nM. Take `O=C1c2c(O)c(=O)ccn2N(C23c4ccccc4CC2Cc2ccccc23)CN1Cc1ccccc1` (stereo not shown) [Compound A4, 3-Benzyl-1-(9a,10-dihydro-9H-indeno[1,2-a]inden-4b-yl)-5-hydroxy-2,3-dihydro-1H-pyrido[2,1-f][1,2,4]triazine-4,6-dione]: the EC50 was above 500 nM. With `CN1CN(C23c4ccccc4CC2Cc2c3ccc(F)c2F)n2ccc(=O)c(O)c2C1=O` (stereo not shown) [Compound A6, 1-(1,2-Difluoro-9a,10-dihydro-9H-indeno[1,2-a]inden-4b-yl)-5-hydroxy-3-methyl-2,3-dihydro-1H-pyrido[2,1-f][1,2,4]triazine-4,6-dione], the 50% effective concentration (EC50) was below 125 nM.

`O=C1c2c(O)c(=O)ccn2N(C23c4ccccc4CC2Cc2ccccc23)CN1CCOc1ccccc1` (stereo not shown) [Compound A7, 1-(9a,10-Dihydro-9H-indeno[1,2-a]inden-4b-yl)-5-hydroxy-3-(2-phenoxy-ethyl)-2,3-dihydro-1H-pyrido[2,1-t][1,2,4]triazine-4,6-dione] came in with an EC50 above 500 nM. The molecule `CN1CN(C23c4cc(F)c(F)cc4CC2Cc2cc(F)c(F)cc23)n2ccc(=O)c(O)c2C1=O` (stereo not shown) [Compound A8, 5-Hydroxy-3-methyl-1-(2,3,6,7-tetrafluoro-9a,10-dihydro-9H-indeno[1,2-a]inden-4b-yl)-2,3-dihydro-1H-pyrido[2,1-f][1,2,4]triazine-4,6-dione] showed a concentration for a half-maximal effect (EC50) of 375 to 500 nM.

Regarding `O=C1c2c(O)c(=O)ccn2N(C23c4ccccc4CC2Cc2c3ccc(F)c2F)CN1CC1CC1` (stereo not shown) [Compound A9, 3-Cyclopropylmethyl-1-(1,2-difluoro-9a,10-dihydro-9H-indeno[1,2-a]inden-4b-yl)-5-hydroxy-2,3-dihydro-1H-pyrido[2,1-f][1,2,4]triazine-4,6-dione], the 50% effective concentration (EC50) was above 500 nM. Regarding `CCN1CN(C23c4ccccc4CC2Cc2cc(F)c(F)cc23)n2ccc(=O)c(O)c2C1=O` (stereo not shown) [Compound A10, 1-(2,3-Difluoro-9a,10-dihydro-9H-indeno[1,2-a]inden-4b-yl)-3-ethyl-5-hydroxy-2,3-dihydro-1H-pyrido[2,1-f][1,2,4]triazine-4,6-dione], the 50% effective concentration (EC50) was 250 to 375 nM.

`O=C1c2c(O)c(=O)ccn2N(C23c4ccccc4CC2Cc2c3ccc(F)c2F)CN1Cc1ccccc1` (stereo not shown) [Compound A11, 3-Benzyl-1-(1,2-difluoro-9a,10-dihydro-9H-indeno[1,2-a]inden-4b-yl)-5-hydroxy-2,3-dihydro-1H-pyrido[2,1-t][1,2,4]triazine-4,6-dione] showed an EC50 above 500 nM. The result for `CN1CN(C23c4cccc(F)c4CC2Cc2c(F)cccc23)n2ccc(=O)c(O)c2C1=O` (stereo not shown) [Compound A12, 1-(1,8-Difluoro-9a,10-dihydro-9H-indeno[1,2-a]inden-4b-yl)-5-hydroxy-3-methyl-2,3-dihydro-1H-pyrido[2,1-f][1,2,4]triazine-4,6-dione] reads below 125 nM; that for `O=C1c2c(O)c(=O)ccn2N(C23c4ccccc4CC2Cc2cc(F)c(F)cc23)CN1CC1CC1` (stereo not shown) [Compound A13, 3-Cyclopropylmethyl-1-(2,3-difluoro-9a,10-dihydro-9H-indeno[1,2-a]inden-4b-yl)-5-hydroxy-2,3-dihydro-1H-pyrido[2,1-f][1,2,4]triazine-4,6-dione], below 125 nM.

The molecule `CCN1CN(C23c4ccccc4CC2Cc2c3ccc(F)c2F)n2ccc(=O)c(O)c2C1=O` (stereo not shown) [Compound A14, 1-(1,2-Difluoro-9a,10-dihydro-9H-indeno[1,2-a]inden-4b-yl)-3-ethyl-5-hydroxy-2,3-dihydro-1H-pyrido[2,1-f][1,2,4]triazine-4,6-dione] showed an EC50 below 125 nM. The result for `O=C1c2c(O)c(=O)ccn2N(C23c4ccccc4CC2Cc2c3ccc(F)c2F)CN1CC1CCOCC1` (stereo not shown) [Compound A15, 1-(1,2-Difluoro-9a,10-dihydro-9H-indeno[1,2-a]inden-4b-yl)-5-hydroxy-3-(tetrahydro-pyran-4-ylmethyl)-2,3-dihydro-1H-pyrido[2,1-f][1,2,4]triazine-4,6-dione] reads below 125 nM. As for `O=C1c2c(O)c(=O)ccn2N(C23c4ccccc4CC2Cc2cc(F)c(F)cc23)CN1CC1CCOCC1` (stereo not shown) [Compound A16, 1-(2,3-Difluoro-9a,10-dihydro-9H-indeno[1,2-a]inden-4b-yl)-5-hydroxy-3-(tetrahydro-pyran-4-ylmethyl)-2,3-dihydro-1H-pyrido[2,1-f][1,2,4]triazine-4,6-dione], the figure is below 125 nM; as for `O=C1c2c(O)c(=O)ccn2N(C23c4ccccc4CC2Cc2c3ccc(F)c2F)CN1Cc1ccc(F)cc1` (stereo not shown) [Compound A17, 1-(1,2-Difluoro-9a,10-dihydro-9H-indeno[1,2-a]inden-4b-yl)-3-(4-fluoro-benzyl)-5-hydroxy-2,3-dihydro-1H-pyrido[2,1-f][1,2,4]triazine-4,6-dione], 125 to 250 nM.

In the case of `CN1CN(C23c4ccccc4CC2Cc2cc(F)c(F)cc23)n2ccc(=O)c(O)c2C1=O` (stereo not shown) [Compound A19, 1-(2,3-difluoro-9a,10-dihydroindeno[1,2-a]inden-4b(9H)-yl)-5-hydroxy-3-methyl-2,3-dihydro-1H-pyrido[2,1-f][1,2,4]triazine-4,6-dione], the concentration giving a half-maximal response (EC50) was below 125 nM. Molecule `CN1CN(C23c4cc(F)ccc4CC2Cc2ccc(F)cc23)n2ccc(=O)c(O)c2C1=O` (stereo not shown) [Compound A20, 1-(3,6-difluoro-9a,10-dihydroindeno[1,2-a]inden-4b(9H)-yl)-5-hydroxy-3-methyl-2,3-dihydro-1H-pyrido[2,1-f][1,2,4]triazine-4,6-dione] came in with an EC50 below 125 nM. As for `O=C1c2c(O)c(=O)ccn2N(C23c4ccccc4CC2Cc2cc(F)c(F)cc23)CN1Cc1ccccc1` (stereo not shown) [Compound A21, 3-benzyl-1-(2,3-difluoro-9a,10-dihydroindeno[1,2-a]inden-4b(9H)-yl)-5-hydroxy-2,3-dihydro-1H-pyrido[2,1-f][1,2,4]triazine-4,6-dione], the figure is 250 to 375 nM; as for `O=C1c2c(O)c(=O)ccn2N(C23c4ccccc4CC2Cc2cc(F)c(F)cc23)CN1CCc1ccccc1` (stereo not shown) [Compound A22, 1-(2,3-difluoro-9a,10-dihydroindeno[1,2-a]inden-4b(9H)-yl)-5-hydroxy-3-phenethyl-2,3-dihydro-1H-pyrido[2,1-f][1,2,4]triazine-4,6-dione], 250 to 375 nM. `O=C1c2c(O)c(=O)ccn2N(C23c4ccccc4CC2Cc2cc(F)c(F)cc23)CN1Cc1ccc(F)cc1` (stereo not shown) [Compound A23, 1-(2,3-Difluoro-9a,10-dihydro-9H-indeno[1,2-a]inden-4b-yl)-3-(4-fluoro-benzyl)-5-hydroxy-2,3-dihydro-1H-pyrido[2,1-f][1,2,4]triazine-4,6-dione] came in with an EC50 above 500 nM.

In turn, `O=C1c2c(O)c(=O)ccn2N(C23c4ccccc4CC2Cc2cc(F)c(F)cc23)CN1Cc1cccc(F)c1` (stereo not shown) [Compound A24, 1-(2,3-difluoro-9a,10-dihydroindeno[1,2-a]inden-4b(9H)-yl)-3-(3-fluorobenzyl)-5-hydroxy-2,3-dihydro-1H-pyrido[2,1-f][1,2,4]triazine-4,6-dione] displayed a 50% effective concentration (EC50) above 500 nM. As for `O=C1c2c(O)c(=O)ccn2N(C23c4ccccc4CC2Cc2c3ccc(F)c2F)CN1CCc1ccccc1` (stereo not shown) [Compound A25, 1-(1,2-difluoro-9a,10-dihydroindeno[1,2-a]inden-4b(9H)-yl)-5-hydroxy-3-phenethyl-2,3-dihydro-1H-pyrido[2,1-f][1,2,4]triazine-4,6-dione], the figure is below 125 nM. As for `O=C1c2c(O)c(=O)ccn2N(C23c4ccccc4CC2Cc2c3ccc(F)c2F)CN1Cc1cccc(F)c1` (stereo not shown) [Compound A26, 1-(1,2-difluoro-9a,10-dihydroindeno[1,2-a]inden-4b(9H)-yl)-3-(3-fluorobenzyl)-5-hydroxy-2,3-dihydro-1H-pyrido[2,1-f][1,2,4]triazine-4,6-dione], the figure is 375 to 500 nM; as for `O=C1c2c(O)c(=O)ccn2N(C23c4ccccc4CC2Cc2c3ccc(F)c2F)CN1CCc1cccc(F)c1` (stereo not shown) [Compound A27, 1-(1,2-difluoro-9a,10-dihydroindeno[1,2-a]inden-4b(9H)-yl)-3-(3-fluorophenethyl)-5-hydroxy-2,3-dihydro-1H-pyrido[2,1-f][1,2,4]triazine-4,6-dione], 125 to 250 nM. The result for `O=C1c2c(O)c(=O)ccn2N(C23c4ccccc4CC2Cc2cc(F)c(F)cc23)CN1CCc1cccc(F)c1` (stereo not shown) [Compound A28, 1-(2,3-difluoro-9a,10-dihydroindeno[1,2-a]inden-4b(9H)-yl)-3-(3-fluorophenethyl)-5-hydroxy-2,3-dihydro-1H-pyrido[2,1-f][1,2,4]triazine-4,6-dione] reads 125 to 250 nM; that for `O=C1c2c(O)c(=O)ccn2N(C23c4ccccc4CC2Cc2cc(F)c(F)cc23)CN1CCc1ccc(F)cc1` (stereo not shown) [Compound A29, 1-(2,3-difluoro-9a,10-dihydroindeno[1,2-a]inden-4b(9H)-yl)-3-(4-fluorophenethyl)-5-hydroxy-2,3-dihydro-1H-pyrido[2,1-f][1,2,4]triazine-4,6-dione], 125 to 250 nM; that for `CN1CN(C23C(=Cc4ccccc42)Cc2ccccc23)n2ccc(=O)c(O)c2C1=O` (stereo not shown) [Compound A30, 5-hydroxy-1-(indeno[1,2-a]inden-4b(9H)-yl)-3-methyl-2,3-dihydro-1H-pyrido[2,1-f][1,2,4]triazine-4,6-dione], below 125 nM.
